Assay results as given in patent US9770022B2, “N-cycloalkyl-N-[(bicyclylphenyl)methylene]-(thio)carboxamide derivatives” (BAYER CROPSCIENCE AG, priority 2013, dated 2017).
Where two headings read alike, the source gives them in different places.

Legend:
Puccinia recondita = assay: In vivo preventive test on Puccinia recondita (brown rust on wheat); conditions: evaluated 11 days after inoculation
Description: (§1) Solvent: 5% by volume of Dimethyl sulfoxide
(§2) • 10% by volume of Acetone Emulsifier: 1 μl of Tween® 80 per mg of active ingredient
(§3) The active ingredients are made soluble and homogenized in a mixture of Dimethyl sulfoxide/Acetone/Tween® 80 and then diluted in water to the desired concentration.
(§4) The young plants of wheat are treated by spraying the active ingredient prepared as described above. Control plants are treated only with an aqueous solution of Acetone/Dimethyl sulfoxide/Tween® 80.
After 24 hours, the plants are contaminated by spraying the leaves with an aqueous suspension of Puccinia recondita spores. The contaminated wheat plants are incubated for 24 hours at 20° C. and at 100% relative humidity and then for 10 days at 20° C. and at 70-80% relative humidity.
(§5) The test is evaluated 11 days after the inoculation. 0% means an efficacy which corresponds to that of the control plants while an efficacy of 100% means that no disease is observed.

Septoria tritici = assay: In vivo preventive test on Septoria tritici (wheat); conditions: 500 ppm of active ingredient, evaluated 24 days after inoculation
Description: as §1, §2, §3, §4
After 24 hours, the plants are contaminated by spraying the leaves with an aqueous suspension of Septoria tritici spores. The contaminated wheat plants are incubated for 72 hours at 18° C. and at 100% relative humidity and then for 21 days at 20° C. and at 90% relative humidity.
The test is evaluated 24 days after the inoculation. 0% means an efficacy which corresponds to that of the control plants while an efficacy of 100% means that no disease is observed.

Sphaerotheca fuliginea = assay: In vivo preventive test on Sphaerotheca fuliginea (powdery mildew on cucurbits); conditions: gherkin, evaluated 15 days after inoculation
Description: as §1, §2, §3
The young plants of gherkin are treated by spraying the active ingredient prepared as described above. Control plants are treated only with an aqueous solution of Acetone/Dimethyl sulfoxide/Tween® 80.
After 24 hours, the plants are contaminated by spraying the leaves with an aqueous suspension of Sphaerotheca fuliginea spores. The contaminated gherkin plants are incubated for 72 hours at 18° C. and at 100% relative humidity and then for 12 days at 20° C. and at 70-80% relative humidity.
The test is evaluated 15 days after the inoculation. 0% means an efficacy which corresponds to that of the control plants while an efficacy of 100% means that no disease is observed.

Alternaria brassicae = assay: In vivo preventive test on Alternaria brassicae (leaf spot on radish); conditions: 500 ppm of active ingredient, spray 24 hours before inoculation, evaluated 6 days after inoculation
Description: as §1, §2, §3
The young plants of radish are treated by spraying the active ingredient prepared as described above. Control plants are treated only with an aqueous solution of Acetone/Dimethyl sulfoxide/Tween® 80.
After 24 hours, the plants are contaminated by spraying the leaves with an aqueous suspension of Alternaria brassicae spores. The contaminated radish plants are incubated for 6 days at 20° C. and at 100% relative humidity.
The test is evaluated 6 days after the inoculation. 0% means an efficacy which corresponds to that of the control plants while an efficacy of 100% means that no disease is observed.

Pyrenophora teres = assay: In vivo preventive test on Pyrenophora teres (barley); conditions: 500 ppm of active ingredient, evaluated 14 days after inoculation
Description: as §1, §2, §3
The young plants of barley are treated by spraying the active ingredient prepared as described above. Control plants are treated only with an aqueous solution of Acetone/Dimethyl sulfoxide/Tween® 80.
After 24 hours, the plants are contaminated by spraying the leaves with an aqueous suspension of Pyrenophora teres spores. The contaminated barley plants are incubated for 48 hours at 20° C. and at 100% relative humidity and then for 12 days at 20° C. and at 70-80% relative humidity.
The test is evaluated 14 days after the inoculation. 0% means an efficacy which corresponds to that of the control plants while an efficacy of 100% means that no disease is observed.

Uromyces appendiculatus = assay: In vivo preventive test on Uromyces appendiculatus (bean rust); conditions: for pest or weed control at 500 ppm: Uromyces appendiculatus, 264 h
Description: as §1, §2, §3
The young plants of bean are treated by spraying the active ingredient prepared as described above. Control plants are treated only with an aqueous solution of Acetone/Dimethyl sulfoxide/Tween® 80.
After 24 hours, the plants are contaminated by spraying the leaves with an aqueous suspension of Uromyces appendiculatus spores. The contaminated bean plants are incubated for 24 hours at 20° C. and at 100% relative humidity and then for 10 days at 20° C. and at 70-80% relative humidity.
as §5

[1] = log P by HPLC on reversed-phase column (C 18), EEC Directive 79/831 Annex V.A8; type: physicochemical; conditions: for chromatographic logP: reversed-phase HPLC column (C 18)
Description: In table 1, the log P values were determined in accordance with EEC Directive 79/831 Annex V.A8 by HPLC (High Performance Liquid Chromatography) on a reversed-phase column (C 18), using the method described below:
Temperature: 40° C.; Mobile phases: 0.1% aqueous formic acid and acetonitrile; linear gradient from 10% acetonitrile to 90% acetonitrile.
Calibration was carried out using unbranched alkan-2-ones (comprising 3 to 16 carbon atoms) with known log P values (determination of the log P values by the retention times using linear interpolation between two successive alkanones). lambda-max-values were determined using UV-spectra from 200 nm to 400 nm and the peak values of the chromatographic signals.

[2] = 500 ppm of active ingredient, evaluated 11 days after inoculation
[3] = 500 ppm, evaluated 11 days after inoculation, Table F2 comparison, read-out: Efficacy
[4] = Table 1, HPLC C 18, 40° C., 0.1% aqueous formic acid and acetonitrile, gradient 10% to 90% acetonitrile, two values = mixture of endo and exo isomers

Row | logP [1, 4] | Compound | Efficacy (Puccinia recondita; 500 ppm of active ingredient) | Efficacy (Septoria tritici) | Efficacy (Sphaerotheca fuliginea; 500 ppm of active ingredient) | Efficacy (Alternaria brassicae) | Efficacy (Pyrenophora teres) | further results
1 | – | Cn1nc(C(F)F)c(C(=O)N(Cc2ccccc2C2CC3CCC2C3)C2CC2)c1Cl (mixture of isomers) [I.02] | 88% | 86% | 98% | – | – | –
2 | – | Cn1nc(C(F)F)c(C(=O)N(Cc2ccccc2C2CC3CCC2C3)C2CC2)c1F (mixture of isomers) [I.03] | 98% | 100% | 100% | 96% | 100% | Efficacy (Uromyces appendiculatus; [2]): 100%
3 | – | O=C(c1ccsc1Br)N(Cc1ccccc1C1CC2CCC1C2)C1CC1 (mixture of isomers) [I.04] | – | 79% | – | – | – | –
4 | – | Cn1cc(C(=O)N(Cc2ccccc2C2CC3CCC2C3)C2CC2)c(C(F)F)n1 (mixture of isomers) [I.05] | 94% | 86% | 95% | 80% | 71% | Efficacy (Uromyces appendiculatus; [2]): 91%
5 | – | Cn1nc(C(F)F)c(C(=S)N(Cc2ccccc2C2CC3CCC2C3)C2CC2)c1F (mixture of isomers) [I.18] | 88% | 100% | 100% | 97% | 94% | Efficacy (Uromyces appendiculatus; [2]): 100%
6 | – | Cn1cc(C(=S)N(Cc2ccccc2C2CC3CCC2C3)C2CC2)c(C(F)F)n1 (mixture of isomers) [I.19] | 88% | 98% | 95% | 75% | – | –
7 | – | Cc1nn(C)c(F)c1C(=O)N(Cc1ccccc1C1CCCC1)C1CC1 [CMP4, N-(2-cyclopentylbenzyl)-N-cyclopropyl-5-fluoro-1,3-dimethyl-1H-pyrazole-4-carboxamide, reference compound] | – | – | – | – | – | pest or weed control at 500 ppm (Uromyces appendiculatus; [3]): < 40%
8 | – | Cn1nc(C(F)F)c(C(=O)N(Cc2ccccc2C2CCCCC2)C2CC2)c1F [CMP5, N-(2-cyclohexylbenzyl)-N-cyclopropyl-3-(difluoromethyl)-5-fluoro-1-methyl-1H-pyrazole-4-carboxamide, reference compound] | – | – | – | – | – | pest or weed control at 500 ppm (Uromyces appendiculatus; [3]): < 40%
9 | – | Cn1cc(C(=O)N(Cc2ccccc2C2CCCCC2)C2CC2)c(C(F)F)n1 [CMP6, N-(2-cyclohexylbenzyl)-N-cyclopropyl-3-(difluoromethyl)-1-methyl-1H-pyrazole-4-carboxamide, reference compound] | – | – | – | – | – | pest or weed control at 500 ppm (Uromyces appendiculatus; [3]): < 40%
10 | – | CC(c1ccccc1C1CCCC1)N(C(=O)c1c(C(F)F)nn(C)c1Cl)C1CC1 (stereo not shown) [CMP7, 5-chloro-N-[1-(2-cyclopentylphenyl)ethyl]-N-cyclopropyl-3-(difluoromethyl)-1-methyl-1H-pyrazole-4-carboxamide, reference compound] | – | – | – | – | – | pest or weed control at 500 ppm (Uromyces appendiculatus; [3]): < 40%
11 | – | CC(c1ccccc1C1=CCCCC1)N(C(=O)c1c(C(F)F)nn(C)c1F)C1CC1 (stereo not shown) [CMP8, N-{1-[2-(cyclohex-1-en-1-yl)phenyl]ethyl}-N-cyclopropyl-3-(difluoromethyl)-5-fluoro-1-methyl-1H-pyrazole-4-carboxamide, reference compound] | – | – | – | – | – | pest or weed control at 500 ppm (Uromyces appendiculatus; 500 ppm, evaluated 11 days after inoculation, Table F3 comparison, read-out: Efficacy): < 55%
12 | 5.45 | Cn1nc(C(F)F)c(C(=S)N(Cc2ccccc2C2CC3CCC2C3)C2CC2)c1Cl (stereo not shown) [I.06] | 88% | 88% | 98% | – | 75% | Efficacy (Uromyces appendiculatus; [2]): 99%
13 | – | Cn1nc(C(F)F)c(C(=O)N(Cc2ccccc2C23CCCC2C3(Cl)Cl)C2CC2)c1F (stereo not shown) [I.07, N-cyclopropyl-N-[2-(6,6-dichlorobicyclo[3.1.0]hex-1-yl)benzyl]-3-(difluoromethyl)-5-fluoro-1-methyl-1H-pyrazole-4-carboxamide] | 94% | 94% | 100% | – | 81% | chromatographic logP [1, 4]: 4.46; pest or weed control at 500 ppm (Uromyces appendiculatus; 500 ppm of active ingredient, evaluated 11 days after inoculation, read-out: Efficacy): 100%
14 | 4.85 | Cn1nc(C(F)F)c(C(=O)N(Cc2cc(Cl)ccc2C23CCCC2C3(Cl)Cl)C2CC2)c1F (stereo not shown) [I.08] | 88% | 94% | 100% | – | 81% | Efficacy (Uromyces appendiculatus; [2]): 99%
15 | 4.90 | Cn1nc(C(F)F)c(C(=O)N(Cc2cc(C34CCCC3C4(Cl)Cl)ccc2Cl)C2CC2)c1F (stereo not shown) [I.09] | – | 100% | 100% | 75% | 88% | Efficacy (Uromyces appendiculatus; [2]): 84%
16 | 4.82 | Cn1nc(C(F)F)c(C(=O)N(Cc2ccccc2C23CCCCC2C3(Cl)Cl)C2CC2)c1F (stereo not shown) [I.10] | 88% | 88% | 100% | – | – | –
17 | 5.22 | Cn1nc(C(F)F)c(C(=O)N(Cc2cc(Cl)ccc2C23CCCCC2C3(Cl)Cl)C2CC2)c1F (stereo not shown) [I.11] | 75% | 75% | 100% | 75% | – | –
18 | 5.25 | Cn1nc(C(F)F)c(C(=O)N(Cc2cc(C34CCCCC3C4(Cl)Cl)ccc2Cl)C2CC2)c1F (stereo not shown) [I.12] | – | 94% | 100% | 97% | 75% | –
19 | 5.54 | Cn1nc(C(F)F)c(C(=O)N(Cc2cc(Cl)ccc2C23CCCCCC2C3(Cl)Cl)C2CC2)c1F (stereo not shown) [I.14] | 75% | 94% | 100% | 83% | – | –
20 | 5.72 | Cn1cc(C(=O)N(Cc2ccccc2C2=CC3CCC2(C)C3(C)C)C2CC2)c(C(F)(F)F)c1 (stereo not shown) [I.22] | – | – | – | – | – | –
21 | 7.09 | Cn1nc(C(F)F)c(C(=O)N(Cc2cc(CC3C4CCC(C4)C3(C)C)ccc2C(C)(C)C)C2CC2)c1F (stereo not shown) [I.23] | – | – | – | – | – | Efficacy (Puccinia recondita; at 100 ppm (note 1)): 79^(1) %; Efficacy (Sphaerotheca fuliginea; at 100 ppm (note 1)): 100^(1) %
22 | – | c1ccc(C2CC3CCC2C3)c(CNC2CC2)c1 (stereo not shown) [IIa.1, N-[2-(bicyclo[2.2.1]hept-2-yl)benzyl]cyclopropanamine] | – | – | – | – | – | chromatographic logP ([1]; Table 2 (amines IIa), same HPLC method, broad signal): 2.01

Row | Compound | logP [1, 4] | Efficacy (Puccinia recondita; 500 ppm of active ingredient) | Efficacy (Septoria tritici) | Efficacy (Sphaerotheca fuliginea; 500 ppm of active ingredient) | Efficacy (Alternaria brassicae) | Efficacy (Pyrenophora teres) | further results
23 | Cc1nn(C)c(F)c1C(=O)N(Cc1ccccc1C1CC2CCC1C2)C1CC1 (stereo not shown) [I.01, N-[2-(bicyclo[2.2.1]hept-2-yl)benzyl]-N-cyclopropyl-5-fluoro-1,3-dimethyl-1H-pyrazole-4-carboxamide] | 4.24 | 100% | 100% | 100% | – | 100% | chromatographic logP [1, 4]: 4.16; Efficacy (Sphaerotheca fuliginea; 100 ppm, Table E2 comparison): total protection; pest or weed control at 500 ppm (Uromyces appendiculatus; read-out: Efficacy, 500 ppm of active ingredient, evaluated 11 days after inoculation): 100%; pest or weed control at 500 ppm (Uromyces appendiculatus; read-out: Efficacy, 500 ppm, evaluated 11 days after inoculation, Table F2 comparison): ≥ 80%
